What was measured:
[1] = DRUGMATRIX: Glutamate, Kainate radioligand binding (ligand: [3H] Kainic acid); format: cell membranes, Rattus norvegicus, Wistar, Brain, Membrane; settings: Not Active = under 50% inhibition at 10 µM
[2] = molecular target: Mitogen-activated protein kinase 3 (Homo sapiens, UniProt P27361); assay: DRUGMATRIX: Protein Serine/Threonine Kinase, ERK1 enzyme inhibition (substrate: Myelin Basic Protein); set-up: species or system Escherichia coli; settings: Not Active = under 50% inhibition at 10 µM
[3] = molecular target: Melanocortin receptor 3 (Homo sapiens, UniProt P41968); format: cell membranes, HEK293, Membrane; also: in other assays of this panel Not Active means under 50% inhibition at 10 µM
[4] = molecular target: Carbonic anhydrase 2 (Homo sapiens, UniProt P00918); assay: DRUGMATRIX: Carbonic Anhydrase II enzyme inhibition (substrate: 4-Nitrophenyl acetate (4-NPA)); format: tissue-based, Erythrocyte; settings: erythrocyte; Not Active = under 50% inhibition at 10 µM
[5] = molecular target: T1, Polyunsaturated fatty acid lipoxygenase ALOX15 (Oryctolagus cuniculus, UniProt P12530); assay: biochemical; format: tissue-based, Reticulocytes;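 also: inhibition of 15-lipoxygenase enzyme activity measured with linoleic acid as the substrate; in other assays of this panel Not Active means under 50% inhibition at 10 µM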
T1 sequence (P12530 whole entry): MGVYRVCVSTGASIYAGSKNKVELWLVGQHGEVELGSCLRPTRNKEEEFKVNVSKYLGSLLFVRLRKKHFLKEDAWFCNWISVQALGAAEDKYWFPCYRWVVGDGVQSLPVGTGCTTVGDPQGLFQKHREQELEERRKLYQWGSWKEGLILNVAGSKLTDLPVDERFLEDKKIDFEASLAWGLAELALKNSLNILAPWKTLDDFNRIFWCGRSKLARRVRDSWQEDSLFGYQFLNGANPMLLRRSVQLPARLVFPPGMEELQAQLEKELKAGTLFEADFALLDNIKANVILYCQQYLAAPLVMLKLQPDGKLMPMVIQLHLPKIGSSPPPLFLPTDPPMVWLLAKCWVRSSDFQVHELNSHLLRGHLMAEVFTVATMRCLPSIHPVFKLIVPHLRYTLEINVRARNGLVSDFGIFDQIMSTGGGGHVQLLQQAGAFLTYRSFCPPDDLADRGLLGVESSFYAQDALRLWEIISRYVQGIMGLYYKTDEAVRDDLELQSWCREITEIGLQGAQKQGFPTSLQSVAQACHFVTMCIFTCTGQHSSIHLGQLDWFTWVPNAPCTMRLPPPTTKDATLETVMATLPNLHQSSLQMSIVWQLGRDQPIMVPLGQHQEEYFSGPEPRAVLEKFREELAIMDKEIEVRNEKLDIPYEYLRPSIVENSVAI

[6] = molecular target: T2, Neutrophil elastase (Homo sapiens, UniProt P08246); format: tissue-based;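 also: inhibition of neutrophil elastase enzyme activity, measured with a p-nitroanilide-linked peptide substrate; in other assays of this panel Not Active means under 50% inhibition at 10 µM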
T2 sequence (P08246 whole entry): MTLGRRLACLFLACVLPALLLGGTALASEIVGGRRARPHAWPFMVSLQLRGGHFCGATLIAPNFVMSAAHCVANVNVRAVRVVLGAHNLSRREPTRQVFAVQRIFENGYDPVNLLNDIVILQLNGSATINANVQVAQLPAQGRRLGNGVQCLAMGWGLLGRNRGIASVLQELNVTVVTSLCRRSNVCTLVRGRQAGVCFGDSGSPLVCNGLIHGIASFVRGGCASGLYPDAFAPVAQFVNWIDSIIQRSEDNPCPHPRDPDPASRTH

[7] = molecular target: T3, Leukotriene C4 synthase (Cavia porcellus, UniProt A6XA80); assay: biochemical; format: tissue-based, Lung;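 also: enzyme inhibition assay of leukotriene C4 synthase, using LTA4 as the substrate; in other assays of this panel Not Active means under 50% inhibition at 10 µM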
T3 sequence (A6XA80 whole entry): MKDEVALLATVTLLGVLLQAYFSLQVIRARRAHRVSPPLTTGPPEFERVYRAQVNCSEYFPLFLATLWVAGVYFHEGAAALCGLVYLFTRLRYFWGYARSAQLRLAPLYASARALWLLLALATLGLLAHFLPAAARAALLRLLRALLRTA

Chain of Mitogen-activated protein kinase 3 (P27361 whole entry): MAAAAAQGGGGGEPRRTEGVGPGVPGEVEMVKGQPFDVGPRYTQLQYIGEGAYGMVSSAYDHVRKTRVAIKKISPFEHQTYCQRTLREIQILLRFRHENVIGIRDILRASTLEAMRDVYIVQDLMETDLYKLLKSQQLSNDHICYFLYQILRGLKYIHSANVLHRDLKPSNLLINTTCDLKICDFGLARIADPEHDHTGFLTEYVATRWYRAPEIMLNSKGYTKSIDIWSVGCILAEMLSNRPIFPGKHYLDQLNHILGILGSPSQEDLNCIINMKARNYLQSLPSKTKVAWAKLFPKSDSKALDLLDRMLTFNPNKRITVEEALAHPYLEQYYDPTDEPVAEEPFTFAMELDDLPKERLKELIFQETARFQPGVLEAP
Chain of Melanocortin receptor 3 (P41968 whole entry): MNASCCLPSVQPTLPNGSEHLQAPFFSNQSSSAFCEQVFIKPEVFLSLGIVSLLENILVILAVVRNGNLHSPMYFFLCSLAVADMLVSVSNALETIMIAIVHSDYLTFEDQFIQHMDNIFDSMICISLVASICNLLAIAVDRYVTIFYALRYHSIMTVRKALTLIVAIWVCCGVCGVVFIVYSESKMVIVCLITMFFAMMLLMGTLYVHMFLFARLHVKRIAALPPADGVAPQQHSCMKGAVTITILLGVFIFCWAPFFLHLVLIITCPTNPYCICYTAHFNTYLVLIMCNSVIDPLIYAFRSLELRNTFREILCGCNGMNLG

| SMILES | IC50 [1] | Ki [1] | IC50 [2] | IC50 ([3]; hek293) | IC50 [4] | IC50 ([5]; read-out: IC50) [nM] | IC50 [6] | IC50 [7] | IC50 ([5]; reticulocytes) | IC50 ([3]; read-out: IC50) [nM] | Ki ([3]; read-out: Ki) [nM] | IC50 ([2]; read-out: IC50) [nM] |
| --- | --- | --- | --- | --- | --- | --- | --- | --- | --- | --- | --- | --- |
| CC#C[C@]1(O)CC[C@H]2[C@@H]3CCC4=CC(=O)CCC4=C3[C@@H](c3ccc(N(C)C)cc3)C[C@@]21C [MIFEPRISTONE] | Not Active | Not Active | Not Active | Not Active | Not Active | 555 | Not Active | Not Active | – | – | – | – |
| CC[C@@]1(O)C(=O)OCc2c1cc1n(c2=O)Cc2cc3c(CN(C)C)c(O)ccc3nc2-1 [TOPOTECAN] | Not Active | Not Active | Not Active | Not Active | Not Active | – | Not Active | Not Active | Not Active | – | – | – |
| Nc1nc(N)c2nc(-c3ccccc3)c(N)nc2n1 | Not Active | Not Active | Not Active | Not Active | Not Active | – | Not Active | Not Active | Not Active | – | – | – |
| Cc1cc2c(s1)Nc1ccccc1N=C2N1CCN(C)CC1 [OLANZAPINE] | – | – | Not Active | Not Active | Not Active | 2770 | Not Active | Not Active | – | – | – | – |
| CC[C@H](C)[C@@H](CO[C@@H](Cc1ccccc1)C(=O)N[C@@H](CCS(C)(=O)=O)C(=O)OC(C)C)NC[C@@H](N)CS | Not Active | Not Active | Not Active | – | Not Active | – | Not Active | Not Active | Not Active | 3390 | 2960 | – |
| CO[C@@]12[C@H](COC(N)=O)C3=C(C(=O)C(C)=C(N)C3=O)N1C[C@@H]1N[C@@H]12 [MITOMYCIN] | Not Active | Not Active | Not Active | Not Active | Not Active | – | Not Active | Not Active | Not Active | – | – | – |
| CCOC(=O)C1=C(C)NC(C)=C(C(=O)OCC)C1c1ccccc1/C=C/C(=O)OC(C)(C)C [LACIDIPINE] | Not Active | Not Active | Not Active | Not Active | Not Active | – | Not Active | Not Active | Not Active | – | – | – |
| Cc1cn([C@H]2C=C[C@@H](CO)O2)c(=O)[nH]c1=O [STAVUDINE] | Not Active | Not Active | Not Active | Not Active | Not Active | – | Not Active | Not Active | Not Active | – | – | – |
| C#C[C@]1(O)CC[C@H]2[C@@H]3[C@H](C)CC4=C(CCC(=O)C4)[C@H]3CC[C@@]21C [TIBOLONE] | Not Active | Not Active | Not Active | Not Active | Not Active | – | Not Active | Not Active | Not Active | – | – | – |
| CC(O)C(=O)O (stereo not given) [LACTIC ACID] | Not Active | Not Active | Not Active | Not Active | Not Active | – | Not Active | Not Active | Not Active | – | – | – |
| O=C(O)c1cc(/N=N/c2ccc(S(=O)(=O)Nc3ccccn3)cc2)ccc1O [SULFASALAZINE] | Not Active | Not Active | Not Active | Not Active | Not Active | – | Not Active | Not Active | Not Active | – | – | – |
| CCN(CC)C(=S)SSC(=S)N(CC)CC | Not Active | Not Active | – | Not Active | Not Active | 16100 | Not Active | Not Active | – | – | – | 1510 |
| CNCCCC12CCC(c3ccccc31)c1ccccc12 [MAPROTILINE] | – | – | Not Active | Not Active | Not Active | – | Not Active | Not Active | Not Active | – | – | – |
| Cc1ccc(Cl)c(Nc2ccccc2C(=O)O)c1Cl [MECLOFENAMIC ACID] | Not Active | Not Active | Not Active | Not Active | Not Active | – | Not Active | Not Active | Not Active | – | – | – |
| CC(C)(C)NC[C@H](O)COc1cccc2c1CCCC2=O [LEVOBUNOLOL] | Not Active | Not Active | Not Active | Not Active | Not Active | – | Not Active | Not Active | Not Active | – | – | – |
| Cc1cccc(C)c1NC(=O)C(C)N (stereo not given) [TOCAINIDE] | Not Active | Not Active | Not Active | Not Active | Not Active | – | Not Active | Not Active | Not Active | – | – | – |
| CCOc1cc(N)c(Cl)cc1C(=O)NCC1CN(Cc2ccc(F)cc2)CCO1 (stereo not given) [MOSAPRIDE] | Not Active | Not Active | Not Active | Not Active | Not Active | – | Not Active | Not Active | Not Active | – | – | – |
| Cc1cnc(NC(=O)C2=C(O)c3ccccc3S(=O)(=O)N2C)s1 [MELOXICAM] | Not Active | Not Active | Not Active | Not Active | Not Active | – | Not Active | Not Active | Not Active | – | – | – |
| O=C1CC[C@@]2(O)[C@H]3Cc4ccc(O)c5c4[C@@]2(CCN3CC2CC2)[C@H]1O5 [NALTREXONE] | Not Active | Not Active | Not Active | Not Active | Not Active | – | Not Active | Not Active | Not Active | – | – | – |
| O=C(c1ccccc1)c1ccc2n1CCC2C(=O)O (stereo not given) [KETOROLAC] | Not Active | Not Active | Not Active | Not Active | Not Active | – | Not Active | Not Active | Not Active | – | – | – |
| Oc1ccc(/C=C/c2cc(O)cc(O)c2)cc1 [RESVERATROL] | Not Active | Not Active | Not Active | Not Active | Not Active | – | Not Active | Not Active | Not Active | – | – | – |
| CN1C(=O)OC(C)(C)C1=O [TRIMETHADIONE] | Not Active | Not Active | Not Active | Not Active | Not Active | – | Not Active | Not Active | Not Active | – | – | – |
| Cc1[nH]c(=O)c(C#N)cc1-c1ccncc1 [MILRINONE] | Not Active | Not Active | Not Active | Not Active | Not Active | – | Not Active | Not Active | Not Active | – | – | – |
| C[C@]12CCC(=O)C[C@@H]1CC[C@@H]1[C@@H]2CC[C@]2(C)[C@@H](O)CC[C@@H]12 [STANOLONE] | Not Active | Not Active | Not Active | Not Active | Not Active | – | Not Active | Not Active | Not Active | – | – | – |
| CCN(CC)CCNC(=O)c1cc(Cl)c(N)cc1OC [METOCLOPRAMIDE] | Not Active | Not Active | Not Active | Not Active | Not Active | – | Not Active | Not Active | Not Active | – | – | – |
| CN(C)CCC=C1c2ccccc2COc2ccccc21 [DOXEPIN] | – | – | Not Active | Not Active | Not Active | – | Not Active | Not Active | Not Active | – | – | – |
| COC(=O)Nc1nc2ccc(C(=O)c3ccccc3)cc2[nH]1 [MEBENDAZOLE] | Not Active | Not Active | Not Active | Not Active | Not Active | – | Not Active | Not Active | Not Active | – | – | – |
| Cc1ccnc(NS(=O)(=O)c2ccc(N)cc2)n1 [SULFAMERAZINE] | Not Active | Not Active | Not Active | Not Active | – | – | Not Active | Not Active | Not Active | – | – | – |
| CCN1CCCC1CNC(=O)c1cc(S(N)(=O)=O)ccc1OC (stereo not given) [SULPIRIDE] | Not Active | Not Active | Not Active | Not Active | – | – | Not Active | Not Active | Not Active | – | – | – |

— ChEMBL document CHEMBL1909046, “DrugMatrix in vitro pharmacology data”
